Measured values reported in patent publication US6977269B1, “Method of improving animal tissue quality” (Pioneer Hi-Bred International, Inc, priority 2001, dated 2005).
Read-outs that look alike come from different tables or passages of the source. Marks after values point to notes of the source that are not given here.

Legend:
[1] = system: pigs; format: in vivo, swine
From the text: The data was derived from the same swine tests as in Example 1. Data from 43 samples was ranked in descending order for four parameters: alpha-tocopherol concentration, gamma-tocopherol concentration, alpha plus gamma-tocopherol concentration, and ratio of alpha-tocopherol to gamma-tocopherol. The data was divided into four quartiles, averaged, and compared to the corresponding quartile loin pH average.

[2] = system: lambs; experiment: Lamb loin chop coloration in retail display (Hunter values, trained panel); format: in vivo; conditions: for Hunter L / Hunter a / Hunter b: lamb loin chops, retail case display; for Discoloration: lean discoloration; for Discoloration / Brown color intensity: trained panel
Protocol: Following carcass fabrication, one boneless leg and the double loin were collected from each carcass, vacuum-packaged, transported and stored under refrigeration (2 to 4° C.) for seven days. […] chops were fabricated from the semimembranosus muscle from each leg following storage. Leg and double-loin chops were wrapped in oxygen permeable fresh meat PVC film. […] The leg chops and second portion of double loin chops were stored in a walk-in cooler.
After seven days in storage, the leg and loin were placed in a display case for nine days to simulate retail meat counter display conditions. Both sides of the double loin chops were evaluated on days 1, 3, 5 and 9 of retail case display for percent lean discoloration and intensity of brownness by a seven-member trained panel and also by a Spectroguard Computer Color Control System. Left and right observation values were averaged.

[3] = in vivo; cited from earlier work
[4] = Lamb loin antioxidant concentrations
[5] = system: pigs; experiment: Visual panel appearance score of pork loin chops in simulated retail display; format: in vivo
Protocol: Young pigs were fed a diet containing 15 IU/kg feed (=15 mg/kg feed=[…]) vitamin E (in the form of alpha-tocopherol acetate) up to 120 pounds. Upon reaching 120 pounds, the pigs were randomly assigned to treatments using weight as a blocking factor. Sixteen pigs were allocated to the control diet, while thirteen pigs were allocated to each test diet. Treatments consisted of typical corn-soybean meal based diets with three levels of dietary tocopherol: (1) Control diet (15 mg/kg feed alpha-tocopherol acetate); (2) diets supplemented with 150, 300 or 450 mg/kg feed alpha-tocopherol acetate; and (3) diets supplemented with 150, 300 or 450 mg/kg feed gamma-tocopherol. Diets were formulated to provide adequate levels of all nutrients and fed in four phases.
Pork chops (2.5 cm) were cut from vacuum-packaged pork loins that had been stored for 21 days at 1 degree C. Freshly cut chops were placed on styrofoam trays with DriLoc (V 50 pads) and overwrapped with PVC (23,250 cc/m 2 /24 hours oxygen permeability). Pork chops were placed in simulated retail display at 2±3 degrees C. for six days. Product temperature was monitored during the display period. Chops were analyzed for lightness (L*), redness (a*), and yellowness (b*) using Illuminant C or D65 on a Minolta Chroma Meter. Three readings per chop were taken on display days 0, 1, 2, 3, 4 and 5.
Loin chop color was evaluated using a trained visual panel of 10 people. Color score was determined using a five-point scale with a score of one (1) representing a very bright pinkish gray and a score of five (5) representing a dull dark red to brown color representative of color deterioration.
Data were analyzed using the GLM procedure of SAS. Due to a limited number of observations from the 150 IU alpha-tocopherol treatment, no estimates of carcass or loin quality measures are presented for that treatment. Data collected over a period of days were also analyzed as a splitplot. Contrasts were made between the Control and added tocopherol diets, Control and alpha-tocopherol, Control and gamma-tocopherol, and alpha- versus gamma-tocopherol.

[6] = male, sheep (lambs), in vivo
[7] = in vivo; conditions: male, sheep (lambs)
[8] = system: iron-loaded rats; conditions: ability to inhibit lipid peroxidation; cited from earlier work
[9] = five-point scale, all supplemented levels pooled

## Cc1c(C)c2c(c(C)c1O)CC[C@@](C)(CCC[C@H](C)CCC[C@H](C)CCCC(C)C)O2 [Alpha-tocopherol, alpha-tocopherol, reference compound]
[1]; 1st Q of the ranked parameter
  Corresponding quartile loin pH average: 5.80
[1]; 2nd Q of the ranked parameter
  Corresponding quartile loin pH average: 5.78
[1]; 3rd Q of the ranked parameter
  Corresponding quartile loin pH average: 6.01
[1]; 4th Q of the ranked parameter
  Corresponding quartile loin pH average: 5.93
[2]
  Hunter L: 36.3^b
  Hunter a: 11.9
  Hunter b: 7.54
  Discoloration: 12.6%
  Brown color intensity: 8.30^b
[3]
  absorbed in the bloodstream: about 100%
[4]; Day 1
  Alpha-Tocopherol in loin: 3.83^a μg/g
  Gamma-Tocopherol in loin: 0.30^b μg/g
  Total antioxidant in loin: 4.13^b μg/g
[4]; Day 6
  Alpha-Tocopherol in loin: 6.22^a μg/g
  Gamma-Tocopherol in loin: 0.43^b μg/g
  Total antioxidant in loin: 6.70^b μg/g
[4]; Overall
  Alpha-Tocopherol in loin: 5.04^a μg/g
  Gamma-Tocopherol in loin: 0.37^b μg/g
  Total antioxidant in loin: 5.41^b μg/g
[5]; dietary level 300 IU
  Appearance score (after 5 day retail display): 3.49
[5]; dietary level 450 IU
  Appearance score (after 5 day retail display): 4.09
[5]; [9]
  Appearance score (after 5 day retail display): 3.79

## Cc1c(O)cc2c(c1C)O[C@](C)(CCC[C@H](C)CCC[C@H](C)CCCC(C)C)CC2 [Gamma-tocopherol, gamma-tocopherol]
[1]; 1st Q of the ranked parameter
  Corresponding quartile loin pH average: 6.03
[1]; 2nd Q of the ranked parameter
  Corresponding quartile loin pH average: 5.95
[1]; 3rd Q of the ranked parameter
  Corresponding quartile loin pH average: 5.77
[1]; 4th Q of the ranked parameter
  Corresponding quartile loin pH average: 5.77
[2]
  Hunter L: 38.4^a
  Hunter a: 11.7
  Hunter b: 8.11
  Discoloration: 13.7%
  Brown color intensity: 10.3^ab
[6]
  Alpha-Tocopherol in loin: 3.22^b μg/g
  Increase of tissue gamma-tocopherol level over control treatment: over 35 times
  Total antioxidant in loin: 9.57^a μg/g
[6]; 1 day
  Alpha-Tocopherol in loin: 3.47^a μg/g
  Total antioxidant in loin: 10.6^a μg/g
[6]; 6 day
  Alpha-Tocopherol in loin: 2.87^b μg/g
  Total antioxidant in loin: 8.47^a μg/g
[3]
  absorbed in the bloodstream: 3–19%
[7]
  concentration at 1 day: 7180 ng/g
  concentration at 6 day: 5570 ng/g
[8]
  antioxidant efficacy relative to alpha-tocopherol on a per unit mass basis: about one-third
[5]; dietary level 150 IU
  Appearance score (after 5 day retail display): 4.05
[5]; dietary level 300 IU
  Appearance score (after 5 day retail display): 4.06
[5]; dietary level 450 IU
  Appearance score (after 5 day retail display): 3.72
[5]; [9]
  Appearance score (after 5 day retail display): 3.89
